Results as given in ChEMBL document CHEMBL1147982, “Structure, inhibitor, and regulatory mechanism of Lyp, a lymphoid-specific tyrosine phosphatase implicated in autoimmune diseases” (Proc Natl Acad Sci U S A, 2007).
Calls of active or inactive are those of the source. No cut-off for these calls is given here.

What was measured:
[1] = target: Tyrosine-protein phosphatase non-receptor type 13 (Homo sapiens, UniProt Q12923); experiment: Inhibition of FAP1
[2] = target: Dual specificity protein phosphatase 3 (Homo sapiens, UniProt P51452); experiment: Inhibition of VHR
[3] = target: T1, Receptor-type tyrosine-protein phosphatase C (Homo sapiens, UniProt P08575); experiment: Inhibition of CD45
T1 sequence (P08575 whole entry): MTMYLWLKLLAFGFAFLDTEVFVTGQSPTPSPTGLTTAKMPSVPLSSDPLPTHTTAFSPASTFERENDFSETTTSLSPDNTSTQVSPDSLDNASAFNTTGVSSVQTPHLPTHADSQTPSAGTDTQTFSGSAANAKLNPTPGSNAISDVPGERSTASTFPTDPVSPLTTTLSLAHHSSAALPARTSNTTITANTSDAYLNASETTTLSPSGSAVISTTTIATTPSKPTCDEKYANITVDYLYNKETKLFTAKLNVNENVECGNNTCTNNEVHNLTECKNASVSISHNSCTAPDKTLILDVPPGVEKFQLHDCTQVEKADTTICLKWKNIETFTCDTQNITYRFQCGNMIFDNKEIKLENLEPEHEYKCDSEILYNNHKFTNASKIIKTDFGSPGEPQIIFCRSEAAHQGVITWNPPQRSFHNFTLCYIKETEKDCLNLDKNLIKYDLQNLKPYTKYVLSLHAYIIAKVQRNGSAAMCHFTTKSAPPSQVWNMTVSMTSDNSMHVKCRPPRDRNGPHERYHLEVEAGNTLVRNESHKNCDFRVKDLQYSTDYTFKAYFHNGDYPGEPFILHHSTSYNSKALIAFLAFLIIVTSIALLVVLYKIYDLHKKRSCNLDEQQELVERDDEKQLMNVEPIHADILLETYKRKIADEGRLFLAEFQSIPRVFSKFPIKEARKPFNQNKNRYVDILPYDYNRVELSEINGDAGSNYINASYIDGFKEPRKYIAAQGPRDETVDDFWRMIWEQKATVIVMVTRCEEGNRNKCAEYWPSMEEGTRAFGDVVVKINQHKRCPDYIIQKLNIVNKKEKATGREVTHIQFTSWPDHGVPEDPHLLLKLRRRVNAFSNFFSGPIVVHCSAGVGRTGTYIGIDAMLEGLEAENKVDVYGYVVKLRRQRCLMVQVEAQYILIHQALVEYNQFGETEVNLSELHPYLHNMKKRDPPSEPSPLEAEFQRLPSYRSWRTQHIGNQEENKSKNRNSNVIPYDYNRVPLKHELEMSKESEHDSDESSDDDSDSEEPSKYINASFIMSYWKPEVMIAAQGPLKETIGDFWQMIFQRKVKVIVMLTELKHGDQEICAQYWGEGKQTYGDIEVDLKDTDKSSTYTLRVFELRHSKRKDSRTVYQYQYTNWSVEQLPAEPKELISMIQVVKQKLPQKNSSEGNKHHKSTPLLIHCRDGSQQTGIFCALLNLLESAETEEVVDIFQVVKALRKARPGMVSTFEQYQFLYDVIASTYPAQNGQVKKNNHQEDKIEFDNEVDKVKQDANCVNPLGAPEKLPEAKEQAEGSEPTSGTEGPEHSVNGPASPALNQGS

[4] = target: Receptor-type tyrosine-protein phosphatase F (Homo sapiens) (UniProt P10586); experiment: Inhibition of LAR at 100 uM
[5] = target: Receptor-type tyrosine-protein phosphatase alpha (Homo sapiens) (UniProt P18433); experiment: Inhibition of PTPalpha at 100 uM
[6] = Inhibition of lymphoid-specific tyrosine phosphatase pLyp35 mutant
[7] = target: T2, Tyrosine-protein phosphatase non-receptor type 1 (Homo sapiens, UniProt P18031); experiment: Inhibition of PTP1B
T2 sequence (P18031 whole entry): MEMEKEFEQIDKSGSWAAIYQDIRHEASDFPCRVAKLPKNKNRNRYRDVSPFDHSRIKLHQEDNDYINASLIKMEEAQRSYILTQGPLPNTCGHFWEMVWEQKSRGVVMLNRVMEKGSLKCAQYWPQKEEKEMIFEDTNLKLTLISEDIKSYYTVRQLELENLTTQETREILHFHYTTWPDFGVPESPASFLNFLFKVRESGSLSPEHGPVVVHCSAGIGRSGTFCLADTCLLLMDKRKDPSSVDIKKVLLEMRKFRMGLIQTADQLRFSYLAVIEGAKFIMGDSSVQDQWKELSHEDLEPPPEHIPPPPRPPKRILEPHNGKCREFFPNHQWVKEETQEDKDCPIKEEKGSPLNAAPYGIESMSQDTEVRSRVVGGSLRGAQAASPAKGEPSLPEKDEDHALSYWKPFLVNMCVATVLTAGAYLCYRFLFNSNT

[8] = target: T3, Tyrosine-protein phosphatase non-receptor type 11 (Homo sapiens, UniProt Q06124); experiment: Inhibition of SHP2
T3 sequence (Q06124 whole entry): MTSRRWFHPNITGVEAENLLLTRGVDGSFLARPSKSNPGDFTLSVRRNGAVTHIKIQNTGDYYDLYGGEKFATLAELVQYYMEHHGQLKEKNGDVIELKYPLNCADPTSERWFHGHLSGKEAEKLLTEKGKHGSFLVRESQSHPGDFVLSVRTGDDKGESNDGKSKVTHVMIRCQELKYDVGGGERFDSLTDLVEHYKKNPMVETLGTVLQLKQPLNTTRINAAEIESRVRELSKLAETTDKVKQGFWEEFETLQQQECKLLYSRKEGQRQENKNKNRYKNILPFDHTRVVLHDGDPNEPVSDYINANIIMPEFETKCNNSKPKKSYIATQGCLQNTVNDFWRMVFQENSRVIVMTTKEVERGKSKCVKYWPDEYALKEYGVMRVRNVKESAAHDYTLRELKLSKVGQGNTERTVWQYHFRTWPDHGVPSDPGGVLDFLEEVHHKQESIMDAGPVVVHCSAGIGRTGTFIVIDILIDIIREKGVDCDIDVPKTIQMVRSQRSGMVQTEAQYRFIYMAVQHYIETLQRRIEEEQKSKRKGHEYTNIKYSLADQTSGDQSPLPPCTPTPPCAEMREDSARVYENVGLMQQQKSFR

[9] = target: T4, Tyrosine-protein phosphatase non-receptor type 7 (Homo sapiens, UniProt P35236); experiment: Inhibition of HePTP
T4 sequence (P35236 whole entry): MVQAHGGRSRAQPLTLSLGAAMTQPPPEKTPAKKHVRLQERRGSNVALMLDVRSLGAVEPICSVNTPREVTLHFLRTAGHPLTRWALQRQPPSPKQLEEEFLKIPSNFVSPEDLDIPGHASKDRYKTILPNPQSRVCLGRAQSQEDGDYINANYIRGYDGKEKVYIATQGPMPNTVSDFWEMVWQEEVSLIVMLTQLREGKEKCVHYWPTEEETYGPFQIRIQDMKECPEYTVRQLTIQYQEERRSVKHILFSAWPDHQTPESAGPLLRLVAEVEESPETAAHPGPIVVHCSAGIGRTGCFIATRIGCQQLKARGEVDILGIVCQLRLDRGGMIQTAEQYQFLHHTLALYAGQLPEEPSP

[10] = target: T5, Tyrosine-protein phosphatase non-receptor type 9 (Homo sapiens, UniProt P43378); experiment: Inhibition of PTP-Meg2
T5 sequence (P43378 whole entry): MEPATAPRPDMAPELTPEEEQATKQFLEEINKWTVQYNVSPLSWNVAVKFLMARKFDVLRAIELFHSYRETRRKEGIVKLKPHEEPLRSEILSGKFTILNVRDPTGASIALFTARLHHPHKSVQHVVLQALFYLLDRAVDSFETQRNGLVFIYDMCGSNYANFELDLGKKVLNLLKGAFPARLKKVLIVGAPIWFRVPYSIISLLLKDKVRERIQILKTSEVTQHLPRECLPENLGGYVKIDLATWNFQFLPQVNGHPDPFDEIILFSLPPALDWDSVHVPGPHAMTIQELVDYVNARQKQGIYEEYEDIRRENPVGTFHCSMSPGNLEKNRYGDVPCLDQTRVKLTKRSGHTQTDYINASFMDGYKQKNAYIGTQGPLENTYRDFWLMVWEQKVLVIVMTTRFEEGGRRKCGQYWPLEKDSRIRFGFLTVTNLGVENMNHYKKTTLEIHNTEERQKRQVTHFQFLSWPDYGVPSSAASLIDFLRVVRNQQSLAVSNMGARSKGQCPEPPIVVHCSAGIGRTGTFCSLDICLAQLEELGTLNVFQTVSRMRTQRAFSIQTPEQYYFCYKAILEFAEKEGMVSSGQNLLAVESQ

Chain of Receptor-type tyrosine-protein phosphatase alpha (Homo sapiens) (P18433 20-802 limits assumed): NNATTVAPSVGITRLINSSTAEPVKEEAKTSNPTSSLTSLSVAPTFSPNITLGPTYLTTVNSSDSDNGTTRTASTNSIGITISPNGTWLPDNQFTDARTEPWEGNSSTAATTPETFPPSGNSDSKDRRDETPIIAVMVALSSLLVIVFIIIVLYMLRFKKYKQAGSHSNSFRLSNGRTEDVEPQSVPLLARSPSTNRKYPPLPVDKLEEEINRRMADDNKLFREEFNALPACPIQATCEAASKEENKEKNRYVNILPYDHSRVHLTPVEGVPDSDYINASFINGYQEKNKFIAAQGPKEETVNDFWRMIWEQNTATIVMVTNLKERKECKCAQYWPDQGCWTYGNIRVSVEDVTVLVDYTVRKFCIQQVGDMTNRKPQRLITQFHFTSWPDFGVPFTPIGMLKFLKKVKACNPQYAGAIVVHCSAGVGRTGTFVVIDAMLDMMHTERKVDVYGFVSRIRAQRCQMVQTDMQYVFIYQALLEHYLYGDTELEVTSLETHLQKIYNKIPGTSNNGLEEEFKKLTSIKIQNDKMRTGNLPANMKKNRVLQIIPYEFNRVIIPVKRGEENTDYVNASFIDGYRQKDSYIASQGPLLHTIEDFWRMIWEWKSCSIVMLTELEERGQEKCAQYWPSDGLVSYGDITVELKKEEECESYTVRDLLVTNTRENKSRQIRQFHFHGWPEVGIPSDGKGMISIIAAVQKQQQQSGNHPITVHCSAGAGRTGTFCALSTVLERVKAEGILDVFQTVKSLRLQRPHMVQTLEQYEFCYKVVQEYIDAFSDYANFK
Chain of Dual specificity protein phosphatase 3 (P51452 whole entry): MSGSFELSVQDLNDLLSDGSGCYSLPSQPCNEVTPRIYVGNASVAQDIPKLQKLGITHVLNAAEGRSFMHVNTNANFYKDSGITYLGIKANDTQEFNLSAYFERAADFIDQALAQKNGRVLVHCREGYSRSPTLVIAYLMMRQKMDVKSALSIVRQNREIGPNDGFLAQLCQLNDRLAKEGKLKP
Chain of Tyrosine-protein phosphatase non-receptor type 13 (Q12923 whole entry): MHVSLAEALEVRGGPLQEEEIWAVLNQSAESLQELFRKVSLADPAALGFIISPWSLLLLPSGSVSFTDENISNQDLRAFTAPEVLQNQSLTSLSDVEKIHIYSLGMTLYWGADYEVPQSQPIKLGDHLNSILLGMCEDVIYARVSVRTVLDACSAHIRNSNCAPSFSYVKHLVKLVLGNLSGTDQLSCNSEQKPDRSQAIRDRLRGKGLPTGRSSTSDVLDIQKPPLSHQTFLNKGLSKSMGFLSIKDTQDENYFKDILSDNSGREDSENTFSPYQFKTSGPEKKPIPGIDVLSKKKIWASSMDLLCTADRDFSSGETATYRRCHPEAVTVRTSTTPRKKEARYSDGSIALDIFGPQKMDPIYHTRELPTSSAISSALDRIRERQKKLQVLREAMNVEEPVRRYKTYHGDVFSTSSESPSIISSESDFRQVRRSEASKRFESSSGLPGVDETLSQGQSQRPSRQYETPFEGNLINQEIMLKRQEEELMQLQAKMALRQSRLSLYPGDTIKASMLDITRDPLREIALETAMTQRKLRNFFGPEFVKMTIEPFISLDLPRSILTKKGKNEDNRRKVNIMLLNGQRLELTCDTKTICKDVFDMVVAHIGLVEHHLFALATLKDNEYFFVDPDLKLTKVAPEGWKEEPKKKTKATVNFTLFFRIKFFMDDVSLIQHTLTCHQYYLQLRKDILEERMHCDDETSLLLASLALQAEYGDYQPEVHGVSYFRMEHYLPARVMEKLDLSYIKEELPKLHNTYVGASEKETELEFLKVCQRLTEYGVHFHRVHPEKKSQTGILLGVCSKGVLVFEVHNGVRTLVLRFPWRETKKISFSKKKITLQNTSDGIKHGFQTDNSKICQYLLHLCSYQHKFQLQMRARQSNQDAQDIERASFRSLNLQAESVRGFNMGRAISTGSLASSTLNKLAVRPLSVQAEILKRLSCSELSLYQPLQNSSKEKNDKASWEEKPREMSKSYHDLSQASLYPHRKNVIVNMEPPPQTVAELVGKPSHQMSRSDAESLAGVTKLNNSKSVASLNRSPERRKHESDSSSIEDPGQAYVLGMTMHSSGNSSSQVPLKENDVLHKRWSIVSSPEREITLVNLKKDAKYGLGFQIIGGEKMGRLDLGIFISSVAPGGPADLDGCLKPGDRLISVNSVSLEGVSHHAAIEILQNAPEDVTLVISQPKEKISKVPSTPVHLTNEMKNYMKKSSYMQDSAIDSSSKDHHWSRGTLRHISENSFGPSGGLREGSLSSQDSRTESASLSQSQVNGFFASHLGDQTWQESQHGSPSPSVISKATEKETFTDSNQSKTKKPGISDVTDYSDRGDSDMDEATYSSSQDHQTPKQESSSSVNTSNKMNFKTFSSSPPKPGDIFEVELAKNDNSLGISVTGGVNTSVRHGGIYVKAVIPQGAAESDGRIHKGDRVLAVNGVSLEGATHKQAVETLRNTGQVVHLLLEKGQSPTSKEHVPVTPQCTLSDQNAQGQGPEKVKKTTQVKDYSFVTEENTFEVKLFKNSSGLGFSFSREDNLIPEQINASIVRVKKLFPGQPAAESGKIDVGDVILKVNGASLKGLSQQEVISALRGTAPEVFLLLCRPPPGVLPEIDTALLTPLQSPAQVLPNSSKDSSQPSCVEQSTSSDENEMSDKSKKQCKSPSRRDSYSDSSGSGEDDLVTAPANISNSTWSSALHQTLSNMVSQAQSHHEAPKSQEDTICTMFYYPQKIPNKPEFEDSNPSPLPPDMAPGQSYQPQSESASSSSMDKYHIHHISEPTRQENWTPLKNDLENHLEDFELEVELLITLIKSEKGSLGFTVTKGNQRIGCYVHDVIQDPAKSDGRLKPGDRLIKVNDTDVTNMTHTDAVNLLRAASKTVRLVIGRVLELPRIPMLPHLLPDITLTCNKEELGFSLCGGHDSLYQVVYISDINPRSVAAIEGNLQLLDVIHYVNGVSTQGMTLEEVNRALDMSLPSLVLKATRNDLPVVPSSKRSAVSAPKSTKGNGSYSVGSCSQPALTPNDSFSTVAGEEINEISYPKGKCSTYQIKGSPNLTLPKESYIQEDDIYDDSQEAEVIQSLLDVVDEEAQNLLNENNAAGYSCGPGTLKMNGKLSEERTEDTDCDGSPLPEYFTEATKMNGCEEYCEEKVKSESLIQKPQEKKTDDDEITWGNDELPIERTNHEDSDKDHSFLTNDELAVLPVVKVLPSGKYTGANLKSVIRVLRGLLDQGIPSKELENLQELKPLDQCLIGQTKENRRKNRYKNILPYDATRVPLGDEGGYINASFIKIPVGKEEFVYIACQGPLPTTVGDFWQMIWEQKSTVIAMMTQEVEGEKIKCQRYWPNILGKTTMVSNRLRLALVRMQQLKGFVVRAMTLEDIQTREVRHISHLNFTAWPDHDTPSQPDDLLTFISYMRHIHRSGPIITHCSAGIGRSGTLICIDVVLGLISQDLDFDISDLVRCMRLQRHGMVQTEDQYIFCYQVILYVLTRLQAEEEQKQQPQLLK

IC50 [1]: 36.8 µM | IC50 [2]: 103 µM | IC50 [3]: 186 µM | Activity [4]: inactive | Activity [5]: inactive | IC50 [6]: 48 µM | IC50 [7]: 11.8 µM | IC50 [8]: 36 µM | IC50 [9]: 32.1 µM | IC50 [10]: 31.8 µM
SMILES: O=C(CCCn1cc(-c2c(-c3ccccc3)oc3cc(O)c(C(=O)O)cc23)nn1)Nc1cccc2ccccc12
